This passage reports IC50 results from ChEMBL document CHEMBL1275352, “Selection of evodiamine as a novel topoisomerase I inhibitor by structure-based virtual screening and hit optimization of evodiamine derivatives as antitumor agents” (J Med Chem, 2010).

Type in all cases: functional, cell-based
Assay [1] relates to LoVo. The assay is described as follows: Cytotoxicity against human LoVo cells after 3 days by MTT assay.
The test system of assay [2] is MDA-MB-435. Briefly: Cytotoxicity against human MDA-MB-435 cells after 3 days by MTT assay.
Assay [3] has as its system A549. Briefly: Cytotoxicity against human A549 cells after 3 days by MTT assay.
Assay [4] concerns HCT-116. Briefly: Cytotoxicity against human HCT116 cells after 3 days by MTT assay. The conditions noted are these: HCT-116, 72 h.
Setting [5] is: Homo sapiens, LoVo, 72 h, read-out: IC50.
The mark [6] stands for this setting: Homo sapiens, MDA-MB-435, 72 h, read-out: IC50.
The mark [7] stands for this setting: Homo sapiens, A549, 72 h, read-out: IC50.

Consider `CN1c2ccccc2C(=O)N2CCc3c(n(C(=O)c4ccccc4)c4ccccc34)C21` (stereo not given), for which the half-maximal inhibitory concentration (IC50) (commonly the concentration at which inhibition is half-maximal) is 15 µM in assay [1] (setting [5]), 47 nM in assay [2] (setting [6]) and 10 µM in assay [3] (setting [7]).
In the case of `CN1c2ccccc2C(=O)N2CCc3c(n(Cc4ccccc4Cl)c4ccccc34)C21` (stereo not given), the IC50 in assay [1] (setting [5]) stood at 74 µM; in assay [2] (setting [6]), 42000 nM; in assay [3] (setting [7]) it was 29 µM.
Turning to `O=C(NCCO)c1ccc2nc3c4ccccc4c4ccccc4c3nc2c1`, the half-inhibitory concentration (IC50) result in assay [1] (lovo), in assay [2] (mda-mb-435) and in assay [3] (a549) was “Not Active” each time.
As to `CC(C)n1c2c(c3ccccc31)CCN1C(=O)c3ccccc3N(C)C21` (stereo not given), the IC50 result in assay [1] (lovo), in assay [2] (mda-mb-435) and in assay [3] (a549) was “Not Active” in each case.
As to `C=CCN1C(=O)/C(=C2\S/C(=N\c3ccccc3)N(c3ccccc3)C2=O)c2ccccc21`, the 50% inhibitory concentration (IC50) result in assay [1] (lovo), in assay [2] (mda-mb-435) and in assay [3] (a549) was “Not Active” throughout.
In the case of `Cn1c(=O)n(C)c2cc3c(cc21)nc1c2cccc4c(Br)ccc(c(=O)n31)c42`, the half-maximal inhibitory concentration (IC50) entry in assay [1] (lovo), in assay [2] (mda-mb-435) and in assay [3] (a549) was “Not Active” each time.
For `CN1c2ccccc2C(=O)N2CCc3c(n(C(=O)c4ccc(F)cc4)c4ccccc34)C21` (stereo not given), the IC50 amounted to 130 nM in assay [2] (setting [6]), 5.1 µM in assay [4] and 4.3 µM in assay [3] (setting [7]).
Take `CC1CCc2c(sc3nc4c5ccccc5c(-c5ccccc5)nn4c(=O)c23)C1` (stereo not given): the concentration for half-maximal inhibition (IC50) entry in assay [1] (lovo), in assay [2] (mda-mb-435) and in assay [3] (a549) was “Not Active” in each case.
Regarding `c1ccc(Cn2c(-c3ccccc3)c(-c3ccccc3)c3c2ncn2nc(-c4cccnc4)nc32)cc1`, the IC50 in assay [1] (setting [5]) is 180 µM; in assay [2] (mda-mb-435), “Not Active”; in assay [3] (a549), “Not Active”.
As to `O=S(=O)(c1ccccc1)c1cc2c(O)c3c(ccc4cccnc43)c(O)c2c2ncccc12`, the IC50 entry in assay [1] (lovo) was “Not Active”; in assay [2] (mda-mb-435), “Not Active”; in assay [3] (setting [7]) it was 120 µM.
Consider `CCCCCCn1c2c(c3ccccc31)CCN1C(=O)c3ccccc3N(C)C21` (stereo not given), for which the IC50 in assay [1] (setting [5]) was determined as 59 µM; in assay [2] (setting [6]), 110000 nM; in assay [3] (setting [7]) it was 120 µM.
The corresponding values for `CN1c2ccccc2C(=O)N2CCc3c(n(Cc4ccccc4)c4ccccc34)C21` (stereo not given) are 67 µM, 110000 nM and 55 µM.
For `CC[C@@]1(O)C(=O)OCc2c1cc1n(c2=O)Cc2cc3ccccc3nc2-1` [CAMPTOTHECIN] the same measures were 3.1 µM, 710 nM and 0.057 µM.
`c1ccc2c(OCc3nc4c5c6c(sc5ncn4n3)CCCCC6)cccc2c1`: the IC50 entry in assay [1] (lovo), in assay [2] (mda-mb-435) and in assay [3] (a549) was “Not Active” in each case.
Consider `O=c1c2ccccc2nc2c3ccccc3c(Sc3nnc4ccccn34)nn12`, for which the half-inhibitory concentration (IC50) result in assay [1] (lovo), in assay [2] (mda-mb-435) and in assay [3] (a549) was “Not Active” throughout.
On to `CCn1c2c(c3ccccc31)CCN1C(=O)c3ccccc3N(C)C21` (stereo not given), for which the IC50 result in assay [1] (lovo), in assay [2] (mda-mb-435) and in assay [3] (a549) was “Not Active” each time.
For the compound `COc1ccc(C(=O)n2c3c(c4ccccc42)CCN2C(=O)c4ccccc4N(C)C32)cc1` (stereo not given), the 50% inhibitory concentration (IC50) result in assay [2] (mda-mb-435) was “Not Active”; in assay [4], 45 µM; in assay [3] (setting [7]), 74 µM.
Consider `CCOC(=O)C1=C(C)N=c2s/c(=C3\C(=O)N(CC)c4ccccc43)c(=O)n2C1/C=C/c1ccccc1` (stereo not given), for which the concentration for half-maximal inhibition (IC50) result in assay [1] (lovo), in assay [2] (mda-mb-435) and in assay [3] (a549) was “Not Active” throughout.
On to `CCCCCN1C(=O)/C(=c2\sc3nc4ccccc4n3c2=O)c2ccccc21`, for which the IC50 result in assay [1] (lovo), in assay [2] (mda-mb-435) and in assay [3] (a549) was “Not Active” each time.
For `CN1c2ccccc2C(=O)N2CCc3c(n(CC(=O)O)c4ccccc34)C21` (stereo not given), the IC50 in assay [1] (setting [5]) was found to be 130 µM; in assay [2] (setting [6]), 13000 nM; in assay [3] (setting [7]), 72 µM.
Take `CN1c2ccccc2C(=O)N2CCc3c(n(C(=O)c4ccc(Cl)cc4Cl)c4ccccc34)C21` (stereo not given): the IC50 in assay [2] (setting [6]) came to 390 nM; in assay [4], 3.8 µM; in assay [3] (setting [7]), 5.3 µM.
As for `CN1c2ccccc2C(=O)N2CCc3c(n(Cc4ccc(Cl)cc4Cl)c4ccccc34)C21` (stereo not given), the IC50 entry in assay [1] (lovo), in assay [2] (mda-mb-435) and in assay [3] (a549) was “Not Active” throughout.
On to `Cc1cccc2c1nc1c3ccc4c5c(ccc(c(=O)n21)c53)C(=O)NC4=O`, for which the IC50 entry in assay [1] (lovo), in assay [2] (mda-mb-435) and in assay [3] (a549) was “Not Active” in each case.
For `CCCn1c2c(c3ccccc31)CCN1C(=O)c3ccccc3N(C)C21` (stereo not given), the concentration for half-maximal inhibition (IC50) result in assay [1] (lovo), in assay [2] (mda-mb-435) and in assay [3] (a549) was “Not Active” in each case.
As for `Cc1ccccc1C(=O)n1c2c(c3ccccc31)CCN1C(=O)c3ccccc3N(C)C21` (stereo not given), the IC50 in assay [2] (setting [6]) turned out to be 150 nM; in assay [4] it was 3.9 µM; in assay [3] (setting [7]), 4.2 µM.
In the case of `CN1c2ccccc2C(=O)N2CCc3c(n(C(=O)c4ccc([N+](=O)[O-])cc4)c4ccccc34)C21` (stereo not given), the IC50 in assay [2] (setting [6]) stood at 550 nM; in assay [4], 4.1 µM; in assay [3] (setting [7]) it was 2.8 µM.
The corresponding values for `CN1c2ccccc2C(=O)N2CCc3c(n(C(=O)c4cccc(Cl)c4)c4ccccc34)C21` (stereo not given) are 51 nM, 3.3 µM and 2.9 µM.
`CCOC(=O)C1=C(C)N=c2s/c(=C3\C(=O)N(CC)c4ccccc43)c(=O)n2C1c1ccccc1` (stereo not given): the IC50 result in assay [1] (lovo), in assay [2] (mda-mb-435) and in assay [3] (a549) was “Not Active” throughout.
In the case of `Cc1ccc(C(=O)n2c3c(c4ccccc42)CCN2C(=O)c4ccccc4N(C)C32)cc1` (stereo not given), the concentration for half-maximal inhibition (IC50) in assay [2] (setting [6]) was found to be 38 nM; in assay [4] it was 4.3 µM; in assay [3] (setting [7]), 3 µM.
With `COCCOC(=O)c1sc2nc3c4ccccc4c(-c4ccc(C)c(C)c4)nn3c(=O)c2c1C`, the 50% inhibitory concentration (IC50) in assay [1] (setting [5]) was 45 µM; in assay [2] (mda-mb-435), “Not Active”; in assay [3] (a549) it was “Not Active”.
For `CCc1c2c(nc3ccc(OC(=O)N4CCC(N5CCCCC5)CC4)cc13)-c1cc3c(c(=O)n1C2)COC(=O)[C@]3(O)CC` [IRINOTECAN], the IC50 is 8.8 µM in assay [1] (setting [5]), 17000 nM in assay [2] (setting [6]) and 6.4 µM in assay [3] (setting [7]).
As for `CCOC(=O)Cn1c2c(c3ccccc31)CCN1C(=O)c3ccccc3N(C)C21` (stereo not given), the IC50 entry in assay [1] (lovo) was “Not Active”; in assay [2] (setting [6]), 150000 nM; in assay [3] (a549), “Not Active”.
For the compound `CN1c2ccccc2C(=O)N2CCc3c(n(CC#N)c4ccccc34)C21` (stereo not given), the figures for the half-inhibitory concentration (IC50) entry in assay [1] (lovo), in assay [2] (setting [6]) and in assay [3] (setting [7]) were “Not Active”, 200000 nM and 220 µM, respectively.
With `COc1ccc(-c2nc3c4c(-c5ccccc5)c(-c5ccccc5)oc4ncn3n2)cc1OC`, the half-inhibitory concentration (IC50) in assay [1] (setting [5]) was 75 µM; in assay [2] (mda-mb-435), “Not Active”; in assay [3] (a549), “Not Active”.
Consider `COc1ccc(Cn2c3c(c4ccccc42)CCN2C(=O)c4ccccc4N(C)C32)cc1` (stereo not given), for which the half-inhibitory concentration (IC50) entry in assay [1] (lovo), in assay [2] (mda-mb-435) and in assay [3] (a549) was “Not Active” each time.
Take `CCOC(=O)n1c2c(c3ccccc31)CCN1C(=O)c3ccccc3N(C)C21` (stereo not given): the half-maximal inhibitory concentration (IC50) is 95 µM in assay [1] (setting [5]), 9400 nM in assay [2] (setting [6]) and 130 µM in assay [3] (setting [7]).
Take `COC(=O)c1cc(OCc2cccc(C(F)(F)F)c2)c2c(c1)Oc1nc3ccccc3nc1O2`: the IC50 entry in assay [1] (lovo), in assay [2] (mda-mb-435) and in assay [3] (a549) was “Not Active” throughout.
Regarding `CN1c2ccccc2C(=O)N2CCc3c(n(Cc4cccc(Cl)c4)c4ccccc34)C21` (stereo not given), the 50% inhibitory concentration (IC50) entry in assay [1] (lovo), in assay [2] (mda-mb-435) and in assay [3] (a549) was “Not Active” each time.
`CN1c2ccccc2C(=O)N2CCc3c(n(C(=O)c4ccccc4Cl)c4ccccc34)C21` (stereo not given): the concentration for half-maximal inhibition (IC50) was 180 nM in assay [2] (setting [6]), 4.7 µM in assay [4] and 14 µM in assay [3] (setting [7]).
On to `CN1c2ccccc2C(=O)N2CCc3c(n(C(=O)c4ccccc4F)c4ccccc34)C21` (stereo not given), for which the IC50 entry is “Not Active” in assay [2] (mda-mb-435), 89 µM in assay [4] and 35 µM in assay [3] (setting [7]).
